Experimental data reported in patent US20130224234A1, “TTLL4 PEPTIDES AND VACCINES CONTAINING THE SAME” (Onco Therapy Science, Inc., priority 2010, published 2013).
“Also recorded” adds a separate entry of the source.

Experiments:
[1] = test system: peptide-pulsed TISI cells; assay: In vitro CTL induction, IFN-gamma ELISPOT assay (HLA-A*2402); assay type: cell-based, human; details: CTLs induced with peptide from HLA-A*2402 positive donor, peptide-pulsed TISI vs control
Source text: Monocyte-derived dendritic cells (DCs) were used as antigen-presenting cells to induce cytotoxic T lymphocyte (CTL) responses against peptides presented on human leukocyte antigen (HLA). DCs were generated in vitro as described elsewhere (Nakahara S et al., Cancer Res 2003, 63(14): 4112-8). Specifically, peripheral blood mononuclear cells isolated from a normal volunteer (HLA-A*2402 positive) by Ficoll-Plaque (Pharmacia) solution were separated by adherence to a plastic tissue culture dish (Becton Dickinson) so as to enrich them as the monocyte fraction. The monocyte-enriched population was cultured in the presence of 1000 U/ml of granulocyte-macrophage colony-stimulating factor (R&D System) and 1000 U/ml of interleukin (IL)-4 (R&D System) in AIM-V Medium (Invitrogen) containing 2% heat-inactivated autologous serum (AS). After 7 days of culture, the cytokine-induced DCs were pulsed with 20 micro-g/ml of each of the synthesized peptides in the presence of 3 micro-g/ml of beta 2-microglobulin for 3 hr at 37 degrees C. in AIM-V Medium. The generated cells appeared to express DC-associated molecules, such as CD80, CD83, CD86 and HLA class II, on their cell surfaces (data not shown). These peptide-pulsed DCs were then inactivated by X-irradiation (20 Gy) and mixing at a 1:20 ratio with autologous CD8+ T cells, obtained by positive selection with CD8 Positive Isolation Kit (Dynal). These cultures were set up in 48-well plates (Corning); each well contained 1.5×10^4 peptide-pulsed DCs, 3×10^5 CD8+ T cells and 10 ng/ml of IL-7 (R&D System) in 0.5 ml of AIM-V/2% AS medium. Three days later, these cultures were supplemented with IL-2 (CHIRON) to a final concentration of 20 IU/ml. On day 7 and 14, the T cells were further stimulated with the autologous peptide-pulsed DCs. The DCs were prepared each time by the same way described above. CTL was tested against peptide-pulsed TISI cells after the 3rd round of peptide stimulation on day 21 (Tanaka H et al., Br J Cancer 2001, 84(1): 94-9; Umano Y et al., Br J Cancer 2001, 84(8): 1052-7; Uchida N et al., Clin Cancer Res 2004, 10(24): 8577-86; Suda T et al., Cancer Sci 2006, 97(5): 411-9; Watanabe T et al., Cancer Sci 2005, 96(8): 498-506).
(§1) Specifically, peptide-pulsed TISI (1×10^4/well) was prepared as stimulator cells. Cultured cells in 48 wells were used as responder cells. IFN-gamma ELISPOT assay and IFN-gamma ELISA assay were performed under manufacture procedure.
CTLs for those peptides derived from TTLL4 were generated according to the protocols as described in “Materials and Methods”.

[2] = test system: peptide-pulsed TISI cells; assay: IFN-gamma ELISA assay of CTL lines (HLA-A*2402); assay type: cell-based, human; details: CTL lines stimulated with peptide, target cells pulsed with peptide vs without peptide pulse
Description: CTLs were expanded in culture using the method similar to the one described by Riddell et al. (Walter E A et al., N Engl J Med 1995 333(16): 1038-44; Riddell S R et al., Nat Med 1996, 2(2): 216-23). A total of 5×10^4 CTLs were suspended in 25 ml of AIM-V/5% AS medium with 2 kinds of human B-lymphoblastoid cell lines, inactivated by Mitomycin C, in the presence of 40 ng/ml of anti-CD3 monoclonal antibody (Pharmingen). One day after initiating the cultures, 120 IU/ml of IL-2 were added to the cultures. The cultures were fed with fresh AIM-V/5% AS medium containing 30 IU/ml of IL-2 on days 5, 8 and 11 (Tanaka H et al., Br J Cancer 2001, 84(1): 94-9; Umano Y et al., Br J Cancer 2001, 84(8): 1052-7; Uchida N et al., Clin Cancer Res 2004, 10(24): 8577-86; Suda T et al., Cancer Sci 2006, 97(5): 411-9; Watanabe T et al., Cancer Sci 2005, 96(8): 498-506).
as §1
(§2) CTL activity of these CTL lines was determined by IFN-gamma ELISA assay (FIG. 2a-f). […] Furthermore, the CTL clones were established by limiting dilution from the CTL lines as described in “Materials and Methods”, and IFN-gamma production from the CTL clones against target cells pulsed peptide was determined by IFN-gamma ELISA assay. […] (FIG. 3a-d).

[3] = test system: peptide-pulsed TISI cells; assay: IFN-gamma ELISA assay of CTL clones (HLA-A*2402); assay type: cell-based, human; details: CTL clones by limiting dilution, target cells pulsed with peptide vs control
Description: The dilutions were made to have 0.3, 1, and 3 CTLs/well in 96 round-bottomed micro titer plate (Nalge Nunc International). CTLs were cultured with 1×10^4 cells/well of 2 kinds of human B-lymphoblastoid cell lines, 30 ng/ml of anti-CD3 antibody, and 125 U/ml of IL-2 in a total of […] of AIM-V Medium containing 5% AS. 50 micro-l/well of IL-2 were added to the medium 10 days later so to reach a final concentration of 125 U/ml IL-2. CTL activity was tested on the 14th day, and CTL clones were expanded using the same method as described above (Uchida N et al., Clin Cancer Res 2004, 10(24): 8577-86; Suda T et al., Cancer Sci 2006, 97(5): 411-9; Watanabe T et al., Cancer Sci 2005, 96(8): 498-506).
as §1, §2

[4] = test system: COS7 cells transfected with TTLL4 and HLA-A*2402; assay: Specific CTL activity against target cells expressing TTLL4 and HLA-A*2402; assay type: cell-based, African green monkey; details: for Specific CTL activity against COS7 cells transfected with both TTLL4 and HLA-A*2402: CTL line (9-103) or CTL clones (10-103, 10-773) established with peptide; for Specific CTL activity against control COS7 cells expressing either HLA-A*2402 or TTLL4: controls: COS7 transfected with only full length TTLL4 or only HLA-A*2402
Source text: The cDNA encoding an open reading frame of target genes or HLA-A*2402 was amplified by PCR. The PCR-amplified product was cloned into a vector. The plasmids were transfected into COS7, which is the target genes and HLA-A*2402-null cell line, using lipofectamine 2000 (Invitrogen) according to the manufacturer's recommended procedures. After 2 days from transfection, the transfected cells were harvested with versene (Invitrogen) and used as the target cells (5×10^4 cells/well) for CTL activity assay.
The established CTL lines and clones raised against each peptide were examined for the ability to recognize target cells that express TTLL4 and HLA-A*2402 molecule. […] COS7 cells transfected with either full length of TTLL4 or HLA-A*2402 were prepared as the controls.

In the case of CYLHSLPDLF [SEQ ID NO: 20], the “Peptide specific CTL activity (IFN-gamma production, ELISPOT)” value (“Peptide specific CTL activity” below) ([1]; listed as TTLL4-A24-10-103) is reported as “potent IFN-gamma production; also recorded: significant and specific CTL activity”, the “IFN-gamma production of CTL lines (ELISA)” value [2] is reported as “potent IFN-gamma production” and the “IFN-gamma production of CTL clones (ELISA)” value ([3]; listed as TTLL4-A24-10-103) is reported as “Potent IFN-gamma productions”. The “Specific CTL activity against COS7 cells transfected with both TTLL4 and HLA-A*2402” value ([4]; listed as TTLL4-A24-10-103) was “specific CTL activity; also recorded: potent CTL activity” and the “Specific CTL activity against control COS7 cells expressing either HLA-A*2402 or TTLL4” value [4] was “no significant specific CTL activity was detected”.

For AYFFCPSTL [SEQ ID NO: 6], the “Peptide specific CTL activity” value ([1]; listed as TTLL4-A24-9-79) was “potent IFN-gamma production; also recorded: significant and specific CTL activity”, the “IFN-gamma production of CTL lines (ELISA)” value [2] was “potent IFN-gamma production” and the “IFN-gamma production of CTL clones (ELISA)” value ([3]; listed as TTLL4-A24-9-79) was “Potent IFN-gamma productions”.

RYLHKPYLI [SEQ ID NO: 1] was tested, and the “Peptide specific CTL activity” value ([1]; listed as TTLL4-A24-9-750) was “potent IFN-gamma production; also recorded: significant and specific CTL activity”, the “IFN-gamma production of CTL lines (ELISA)” value [2] was “potent IFN-gamma production” and the “IFN-gamma production of CTL clones (ELISA)” value ([3]; listed as TTLL4-A24-9-750) was “Potent IFN-gamma productions”.

For SYDPLRIYLF [SEQ ID NO: 21], the “Peptide specific CTL activity” value ([1]; listed as TTLL4-A24-10-773) was “potent IFN-gamma production; also recorded: significant and specific CTL activity”, the “IFN-gamma production of CTL lines (ELISA)” value [2] was “potent IFN-gamma production” and the “IFN-gamma production of CTL clones (ELISA)” value ([3]; listed as TTLL4-A24-10-773) was “Potent IFN-gamma productions”. The “Specific CTL activity against COS7 cells transfected with both TTLL4 and HLA-A*2402” value ([4]; listed as TTLL4-A24-10-773) was “specific CTL activity; also recorded: potent CTL activity” and the “Specific CTL activity against control COS7 cells expressing either HLA-A*2402 or TTLL4” value [4] was “no significant specific CTL activity was detected”.
